Test systems include TK-10 renal; KM12 colon; T-47D breast; A549 NSCLC; NCI-H226 lung; MCF7 breast; BT-549 breast; DU-145 prostate; ACHN renal; PC-3 prostate.
What all share (test): inhibition of tumour cell growth, NCI panel, 48 h

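Test compounds were applied to cells in 96-well plates for 48 hours at 5 doses. The concentration for 50% growth inhibition is given as GI50. The concentration for full growth arrest is given as TGI.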

GI50 and TGI data for 7 compounds are collected here from PubChem BioAssay (NCI).

As for `COc1ccc(/C(C#N)=C/c2ccccc2OC)cc1`, the GI50 with TK-10 renal was 12.4 µM; with KM12 colon, 5.04 µM; in the experiment on T-47D breast, 10 µM; in the experiment on A549 NSCLC it was 6.19 µM; in the experiment with NCI-H226 lung, 17.7 µM; in the experiment on MCF7 breast, 4.3 µM. The results for the GI50 with BT-549 breast, in the experiment on DU-145 prostate and with ACHN renal were 5.64 µM, 27.7 µM and 32.1 µM, respectively. The TGI with TK-10 renal, in the experiment with KM12 colon, in the experiment on T-47D breast, in the experiment with A549 NSCLC, with NCI-H226 lung and in the experiment with MCF7 breast was over 100 µM each time. The TGI in the experiment on BT-549 breast, in the experiment with DU-145 prostate, in the experiment with ACHN renal and with PC-3 prostate was over 100 µM in each case.

As to `CCOC(=O)c1cc(NS(=O)(=O)c2ccccc2)cc(C(=O)OCC)c1`, the GI50 in the experiment on TK-10 renal, with KM12 colon, in the experiment on T-47D breast, in the experiment with A549 NSCLC, with NCI-H226 lung and in the experiment on MCF7 breast was over 100 µM throughout. In addition, the GI50 in the experiment on BT-549 breast, in the experiment with DU-145 prostate, in the experiment on ACHN renal and in the experiment with PC-3 prostate was over 100 µM throughout. In addition, the TGI with TK-10 renal, in the experiment on KM12 colon, in the experiment on T-47D breast, in the experiment with A549 NSCLC, in the experiment with NCI-H226 lung and in the experiment on MCF7 breast was over 100 µM throughout. Also, the TGI with BT-549 breast, in the experiment on DU-145 prostate, in the experiment on ACHN renal and in the experiment on PC-3 prostate was over 100 µM each time.

For `O=C1c2cccnc2C(=O)c2nc3cc(N4CCN(C5CC5)CC4)ccc3nc21`, the GI50 was 2.19 µM in the experiment on TK-10 renal; 1.25 µM in the experiment on KM12 colon; 2.16 µM with T-47D breast; 0.213 µM in the experiment on A549 NSCLC; 1.46 µM in the experiment with NCI-H226 lung; 0.276 µM in the experiment on MCF7 breast. Also, the GI50 in the experiment on BT-549 breast is 1.04 µM; in the experiment with DU-145 prostate, 0.242 µM; in the experiment on ACHN renal it was 0.6 µM; with PC-3 prostate, 1.97 µM. The TGI in the experiment on TK-10 renal was 7.81 µM; in the experiment on KM12 colon, 5.11 µM; in the experiment with T-47D breast, 6.34 µM; in the experiment on A549 NSCLC, 0.669 µM; in the experiment on NCI-H226 lung, 4.08 µM; in the experiment with MCF7 breast, 1.78 µM. The TGI came to 2.38 µM with BT-549 breast, 0.833 µM in the experiment with DU-145 prostate, 4.34 µM with ACHN renal and 23.2 µM in the experiment with PC-3 prostate.

`C=CCOc1cccc(/C=C2\SC(=Nc3ccc(O)cc3)NC2=O)c1`: the GI50 in the experiment with TK-10 renal is 4.57 µM; with KM12 colon, 0.433 µM; in the experiment with T-47D breast, 0.495 µM; with A549 NSCLC, 0.717 µM; in the experiment on NCI-H226 lung, 1.21 µM; in the experiment with MCF7 breast, 0.361 µM. Also, the GI50 in the experiment on BT-549 breast is 0.529 µM; in the experiment on DU-145 prostate, 0.399 µM; in the experiment with ACHN renal, 0.777 µM; in the experiment with PC-3 prostate, 0.537 µM. In addition, the TGI in the experiment with TK-10 renal is 18.8 µM; with KM12 colon, 8.86 µM; in the experiment with T-47D breast, over 100 µM; in the experiment with A549 NSCLC, 14.9 µM; with NCI-H226 lung, 22.6 µM; in the experiment with MCF7 breast it was over 57.8 µM. Also, the TGI in the experiment on BT-549 breast is 3.4 µM; with ACHN renal, 13.7 µM; in the experiment with PC-3 prostate, over 48.4 µM.

As to `COc1ccc(-c2c3c(N)nc(-c4ccncc4)nc3nc3c2c(C)nn3-c2ccccc2)cc1`, the GI50 with TK-10 renal was 3.71 µM; with KM12 colon, 8.55 µM; with T-47D breast, 3.96 µM; in the experiment with A549 NSCLC, 2.4 µM; in the experiment with NCI-H226 lung, over 100 µM; with MCF7 breast, 4.28 µM. In addition, the GI50 with BT-549 breast was 41.5 µM; in the experiment with DU-145 prostate, 7.39 µM; in the experiment on ACHN renal, 4.58 µM; with PC-3 prostate, over 100 µM. Moreover, the TGI in the experiment with TK-10 renal was 14.6 µM; with KM12 colon, over 100 µM; in the experiment with T-47D breast it was over 100 µM; in the experiment with A549 NSCLC it was 35.1 µM; with NCI-H226 lung, over 100 µM; with MCF7 breast it was over 100 µM. In addition, the TGI with BT-549 breast, in the experiment on DU-145 prostate, with ACHN renal and with PC-3 prostate was over 100 µM each time.

Consider `COc1cccc(-n2ncc3c(N/N=C/c4ccc(C(=O)NCCN(C)C)cc4)ncnc32)c1`, for which the GI50 is 3.4 µM in the experiment on TK-10 renal; 1.36 µM in the experiment with KM12 colon; over 22.6 µM in the experiment with T-47D breast; 3.33 µM in the experiment with A549 NSCLC; 9.36 µM with NCI-H226 lung; 3.02 µM in the experiment with MCF7 breast. The GI50 is 4.33 µM with BT-549 breast, 3.18 µM in the experiment on DU-145 prostate, 1.08 µM in the experiment with ACHN renal and 2.97 µM in the experiment on PC-3 prostate. The TGI is 6.8 µM in the experiment on TK-10 renal; 4.67 µM with KM12 colon; over 25 µM in the experiment with T-47D breast; 6.91 µM in the experiment on A549 NSCLC; over 22.2 µM in the experiment on NCI-H226 lung; 6.82 µM in the experiment on MCF7 breast. Moreover, the TGI worked out at 8.1 µM with BT-549 breast, 6.57 µM in the experiment on DU-145 prostate, 4.86 µM with ACHN renal and 6.47 µM in the experiment on PC-3 prostate.

As to `Cn1cccc1-c1cc(-c2cccs2)nc(N)c1C#N`, the GI50 in the experiment on TK-10 renal, in the experiment on KM12 colon, in the experiment on T-47D breast, in the experiment with A549 NSCLC, in the experiment with NCI-H226 lung and in the experiment with MCF7 breast was over 100 µM in each case. The GI50 in the experiment on BT-549 breast, in the experiment with DU-145 prostate, in the experiment on ACHN renal and with PC-3 prostate was over 100 µM in each case. The TGI in the experiment with TK-10 renal, in the experiment with KM12 colon, in the experiment with T-47D breast, in the experiment on A549 NSCLC, with NCI-H226 lung and in the experiment on MCF7 breast was over 100 µM in each case. Also, the TGI in the experiment with BT-549 breast, in the experiment with DU-145 prostate, in the experiment on ACHN renal and in the experiment on PC-3 prostate was over 100 µM in each case.
